# Measurements reported in US20240336573A1, “COMPOUND FOR THE TREATMENT AND PROPHYLAXIS OF INFECTIOUS DISEASES” (Eberhard Karls Universität Tübingen Medizinische Fakultät, priority 2021, published 2024).
# Columns and labels:
# [1] = tested on: E. coli JW2496-3; assay: Sensitizer MIC assay (vancomycin); format: cell-based; conditions: 100 μM compound, more susceptible strain
# Method: (§1) To test for the sensitizer properties of the compounds, the inventors then performed a sensitizer MIC assay. To this end, E. coli BW25113, E. coli JW2496-3, and E. coli ATCC 25922 inocula were prepared as described above. Each well of a 96-well plate was prefilled with a fixed compound concentration of 100 μM and a dilution series of Vancomycin ranging from […]. A sensitizing effect was defined as reduction of the MIC value of Vancomycin of the respective test strain.
# [2] = tested on: E. coli ATCC 25922; assay: Sensitizer MIC assay (vancomycin); format: cell-based; conditions: vancomycin; 100 μM compound; type strain
# Method: as §1
# [3] = tested on: E. coli BW25113; assay: Sensitizer MIC assay (vancomycin); format: cell-based; conditions: 100 μM compound, wildtype strain
# Method: as §1
# [4] = tested on: E. coli BW25113, E. coli JW2496-3, E. coli ATCC 25922; assay: Minimal inhibitory concentration assay (bactericidal/bacteriostatic assessment); format: cell-based; conditions: dilution series 100-1.7 μM
# Excerpt: The intended effect of a SurA inhibitor should be the induction of a disturbance of the outer membrane composition resulting in an increased susceptibility to antibiotic treatment. Of note, Vancomycin is typically not used to treat infections with Gram-negative bacteria, because it is excluded by the OM and not efficient at concentrations that could be achieved in patients. However, at appropriate dosing in vitro it can be used to detect outer membrane defects. For determining a potential sensitizing effect of Vancomycin treatment, the inventors first tested whether the compounds at hand were bactericidal per se. Therefore, the inventors performed a minimal inhibitory concentration (MIC) assay. To this end, 5 ml overnight cultures of E. coli BW25113 (Keio-Collection reference strain), E. coli JW2496-3 (Keio-Collection single gene knockout for bamB, which suffers from decreased outer membrane integrity) and E. coli ATCC 25922 (a reference strain recommended for antibiotic susceptibility testing) were grown in Mueller Hinton Broth, Cation adjusted (MHB-II). The next day, the OD was adjusted to obtain 1*10^8 CFU/ml using fresh MHB-II. Next, this bacterial solution was diluted 1:100 into 20 ml fresh MHB-II. 50 μl of this bacteria solution were then transferred into each well of a 96-well plate prefilled with 50 μl MHB-II supplemented with the desired compounds. The test plates for the bactericidal assessment contained dilution series of the compounds from 100-1.7 μM. Plates were sealed with a gas permeable membrane and incubated o/n at 37° C. in a humid chamber without shaking. After o/n incubation, bacterial growth was quantified by measuring the optical density at 600 nm wavelength in a multiplate reader. Compounds showing no growth inhibition at 100 μM were considered non-bactericidal. Of note, the bactericidal effect of Vancomycin was assessed similarly for each test strain using Vancomycin concentrations ranging from […]. This was done to identify a Vancomycin concentration at which the strains just managed to survive.
# [5] = target: SurA (Escherichia coli, UniProt P0ABZ6); assay: Luciferase-based SurA activity assay (primary assay, in-house); format: biochemical, E. coli; conditions: n/d: no signal detected; for Primary Assay ICmax: QHL-10 derivatives, dose response up to 125 μM; for Primary Assay Amplitude: amplitude of signal
# Excerpt: The biological function of SurA is to bind and to keep outer membrane proteins that have reached the periplasm in an unfolded but folding-competent state. The inventors' assay is based on this interaction and uses firefly Luciferase (fLuc) as a non-native substrate. […] This is exploited in the assay (FIG. 3). The loss of tertiary structure of fLuc leads to the exposure of binding sites for SurA. It is known that SurA binds selectively to a special group of substrates. These substrates have in common the specific patterns of hydrophobic amino acids that are highly enriched in the beta strands of integral outer membrane proteins. These motifs are present in OMPs of all Gram-negative bacteria and in fLuc as well. Upon mild heat treatment of fLuc and its subsequent partial unfolding, fLuc is accepted as a substrate by SurA. Of note, these intermediates served as reporter substrates to determine the activity of a […] folding chaperone. […] This interaction remains stable upon temperature reduction. Next, the temperature of the assay is reduced to room temperature and luciferase activity is subsequently measured by addition of Luciferin and ATP. In conditions without SurA, fLuc will refold into its active conformation resulting in a luminescence signal.
# In short, the Luciferase based SurA activity assay was performed in SurA Activity Assay Buffer (40 mM HEPES pH 7.4, 20 mM MgSO4, 0.5 g/I BSA). SurA aliquots were thawn at RT, activated by mild heat treatment and cooled down to RT for 10 min. […] Solution A containing 10 mM ATP as well as 0.3 mM Luciferin (Promega Beetle Luciferin, Potassium Salt) in water was prepared. Luciferase working solution was prepared by diluting 1 ml Luciferase working stock (100 nM) with 9 ml assay buffer. 33 μl of the protein solution were added to every 2nd row of a well of a 384-well PS, white, flat bottom plate. […] Subsequently, 2 μl of compound in DMSO were added in quadruplicates (4 wells each of protein solution and buffer controls). These compound solutions could contain either various compounds or different dilutions of the same compound allowing screening inhibitor activity in a dose dependent manner. After compound addition, plates were incubated 15 min at RT. After this incubation, 5 μl of Luciferase working solution were added to each well. Next, the plates were incubated 25 min at 38° C. to partially unfold the Luciferase. Subsequently, the assay plate was cooled for 5 min at 4° C. followed by 10 min incubation at RT prior to luminescence measurement. Luminescence was measured in a TECAN infinite M200 pro plate reader for each well individually after injection of 10 μl Solution A.
# SurA, sequence (P0ABZ6 21-428): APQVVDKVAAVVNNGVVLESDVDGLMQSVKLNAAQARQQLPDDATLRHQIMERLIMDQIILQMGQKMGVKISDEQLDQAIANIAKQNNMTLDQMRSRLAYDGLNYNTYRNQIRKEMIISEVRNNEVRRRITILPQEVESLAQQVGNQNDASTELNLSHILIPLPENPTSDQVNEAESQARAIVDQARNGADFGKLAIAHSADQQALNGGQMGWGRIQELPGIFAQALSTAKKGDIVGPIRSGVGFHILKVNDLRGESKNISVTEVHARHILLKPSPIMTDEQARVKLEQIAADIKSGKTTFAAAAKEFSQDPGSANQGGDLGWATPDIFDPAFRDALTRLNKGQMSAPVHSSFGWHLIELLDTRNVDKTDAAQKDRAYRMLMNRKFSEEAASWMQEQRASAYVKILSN
SMILES,Sensitizer MIC Assay (log2-fold reduction of MIC in presence of compound) JW2496-3 [1],Sensitizer MIC Assay (log2-fold reduction of MIC in presence of compound) ATCC25922 [2],Sensitizer MIC Assay (log2-fold reduction of MIC in presence of compound) BW25113 [3] [log2-fold],Bacteriostatic MIC Assay Result [4],Primary Assay ICmax [5] [µM],Primary Assay Amplitude [5]
"CCOC(=O)COc1ccc(Cc2nc(C(N)=O)c(NC(=O)c3ccc(-c4ccccc4)cc3)[nH]2)cc1 [Compound 1a, Ethyl 2-(4-((5-([1,1′-biphenyl]-4-carboxamido)-4-carbamoyl-1H-imidazol-2-yl)methyl)-phenoxy)acetate]",0 log2-fold,0 log2-fold,0,non-bacteriostatic,16,high
"NC(=O)c1nc(-c2ccc(F)c(N)c2)[nH]c1NC(=O)c1ccc(-c2ccccc2)cc1 [Compound 3d, 5-([1,1′-biphenyl]-4-carboxamido)-2-(3-amino-4-fluorophenyl)-1H-imidazole-4-carboxamide]",0 log2-fold,0 log2-fold,0,non-bacteriostatic,16,high
"CCOc1ccc2ccccc2c1C(=O)Nc1[nH]c(-c2ccc(F)c(N)c2)nc1C(N)=O [Compound 3g, 2-(3-amino-4-fluorophenyl)-5-(2-ethoxy-1-naphthamido)-1H-imidazole-4-carboxamide]",0 log2-fold,0 log2-fold,0,non-bacteriostatic,64,low
"NC(=O)c1nc(-c2ccccc2O)[nH]c1NC(=O)c1ccc(-c2ccccc2)cc1 [Compound 3c, 5-([1,1′-biphenyl]-4-carboxamido)-2-(2-hydroxyphenyl)-1H-imidazole-4-carboxamide]",1-2 log2-fold,1-2 log2-fold,0,non-bacteriostatic,8,high
"NC(=O)c1nc(Cc2ccccc2)[nH]c1NC(=O)c1ccc(-c2ccccc2)cc1 [Compound 1e, 5-([1,1′-biphenyl]-4-carboxamido)-2-benzyl-1H-imidazole-4-carboxamide]",0 log2-fold,0 log2-fold,0,non-bacteriostatic,16,high
"NC(=O)c1nc(-c2cccc(N)c2)[nH]c1NC(=O)c1ccc(-c2ccccc2)cc1 [Compound 3b, 5-([1,1′-biphenyl]-4-carboxamido)-2-(3-aminophenyl)-1H-imidazole-4-carboxamide]",1-3 log2-fold,1 log2-fold,1,non-bacteriostatic,8,high
"NC(=O)c1nc(Cc2ccc(OCc3ccccc3)cc2)[nH]c1NC(=O)c1ccc(-c2ccccc2)cc1 [Compound 1d, 5-([1,1′-biphenyl]-4-carboxamido)-2-(4-(benzyloxy)benzyl)-1H-imidazole-4-carboxamide]",0 log2-fold,0 log2-fold,0,non-bacteriostatic,32,low
"NC(=O)c1nc(Cc2ccc(OCC(=O)O)cc2)[nH]c1NC(=O)c1cccc(-c2ccccc2)c1 [Compound 2b, 2-(4-((5-([1,1′-biphenyl]-3-carboxamido)-4-carbamoyl-1H-imidazol-2-yl)methyl)phenoxy)acetic acid]",0 log2-fold,0 log2-fold,0,non-bacteriostatic,64,low
"CCOc1ccc2ccccc2c1C(=O)Nc1[nH]c(-c2ccccc2O)nc1C(N)=O [Compound 3f, 5-(2-ethoxy-1-naphthamido)-2-(2-hydroxyphenyl)-1H-imidazole-4-carboxamide]",2 log2-fold,1 log2-fold,1,non-bacteriostatic,16,low
